The results in this text go back to patent US11859014B2, “Peptidomimetics for the treatment of Norovirus infection” (EMORY UNIVERSITY, priority 2016, dated 2024).

A short description of data set [1]: Cellular toxicity assay in PBM cells. The data set is classed as cell-based. Particulars: human, read-out: Cytotoxicity, CC50 (μM) PBM. The protocol:
(§1) The toxicity of the compounds was assessed in Vero, human PBM, CEM (human lymphoblastoid), MT-2, and HepG2 cells, as described previously (see Schinazi R. F., Sommadossi J.-P., Saalmann V., Cannon D. L., Xie M.-Y., Hart G. C., Smith G. A. & Hahn E. F. Antimicrob. Agents Chemother. 1990, 34, 1061-67). Cycloheximide was included as positive cytotoxic control, and untreated cells exposed to solvent were included as negative controls. The cytotoxicity CC50 was obtained from the concentration-response curve using the median effective method described previously (see Chou T.-C. & Talalay P. Adv. Enzyme Regul. 1984, 22, 27-55; Belen'kii M. S. & Schinazi R. F. Antiviral Res. 1994, 25, 1-11).

Data set [2] has as its target Norovirus GI.1 (Norwalk virus) protease (Norovirus (strain Human/NoV/United States/Norwalk/1968/GI) (Hu/NV/NV/1968/US), UniProt Q83883). Kind of data set: FRET based enzyme assay, Norovirus GI.1 protease. The data set is classed as biochemical. As to conditions: 37° C. How it is done: Norovirus GI.1 (Norwalk virus) protease were tested for enzymatic activity using a fluorescence resonance energy transfer (FRET) based enzyme assay. Norovirus GI.1 represents 5 to 10% of the clinical isolates. The FRET kinetic enzyme assays were performed as follows. The purified viral protease was diluted in reaction buffer (50 mM HEPES, pH 8.0, 120 mM NaCl, 0.4 mM EDTA, 20% glycerol, and 4 mM DTT) to a final concentration of 128 nM. Each reaction was initiated by addition of FRET substrate [(HiLyte Fluor 488) -[…]-(QXL520)]. To determine kinetic parameters, the FRET substrate was serially diluted to final concentrations of 100 μM to 49 nM and added to the reaction. The final reaction volume was 100 μL. The fluorescence emitted by substrate cleavage was monitored by a microplate reader (SpectraMax M5, Molecular Devices, Sunnyvale, CA, USA) at a 488 nm excitation wavelength with an emission wavelength of 520 nm. Readings were taken every minute for 20 minutes, and the reactions were performed at 37° C. In order to convert RFU into μM, a standard curve was created by measuring fluorescence of free HiLyte Fluor 488, which was serially diluted from 250 nM to 3.9 nM. All data were plotted and analyzed with GraphPad Prism v. 6.07.

Data set [3] is described as follows: Cellular toxicity assay in Huh7 cells. Particulars: human, read-out: Cytotoxicity, CC50 (μM) Huh7. The data set is classed as cell-based. The protocol:
[The procedure below names another cell line; the source lists this cell line under the same test.] as §1

Data set [4] is described as follows: Cellular toxicity assay in Vero cells. The data set is classed as cell-based. As to conditions: African green monkey, read-out: Cytotoxicity, CC50 (μM) VERO. How it is done: as §1
Data set [5] has as its target Minerva virus protease (Norovirus GII.4 (Minerva virus), UniProt P54634). The data set is described as follows: FRET enzyme kinetic assay, NoV GII.4 Minerva virus protease. The data set is classed as biochemical. Particulars: Minerva virus (GII.4) protease; inhibitor incubated with enzyme 90 minutes at 37° C. before FRET substrate. How it is done:
The ability of these compounds to inhibit the NoV, specifically Minerva virus protease catalytic Cys139 covalently (IC50 and Ki) was determined with an enzyme kinetic assay. NoV strains, specifically GII.4 such as the Minerva virus are responsible for causing the majority (˜80%) of infections in humans. The activity of the inhibitors was evaluated by monitoring the cleavage of a FRET substrate every one minute for 20 minutes (excitation/emission: 488/520 nm) using a SpectraMax M5 microplate reader (Molecular Devices, Sunnyvale CA). Serial dilutions of each inhibitor were incubated with enzyme for 90 minutes at 37° C. before addition of the FRET substrate to ensure complete inactivation. Commercially available protease inhibitors chymostatin and rupintrivir were used as controls.

Data set [6] in a line: Cellular toxicity assay in CEM cells. As to conditions: human, read-out: Cytotoxicity, CC50 (μM) CEM. The data set is classed as cell-based. How it is done:
as §1

For orientation: CC50 means the concentration giving 50% cytotoxicity. In general, IC50 refers to the point on the concentration scale where inhibition reaches its midpoint. High values mean a need for much substance, low ones inhibition by little substance. The term Ki denotes a dissociation constant, usually derived from enzyme kinetics or from competition with a known ligand. Low readings indicate a stronger hold on the target, high ones a looser hold on the target.

Chain of Norovirus GI.1 (Norwalk virus) protease (Q83883 1101-1281): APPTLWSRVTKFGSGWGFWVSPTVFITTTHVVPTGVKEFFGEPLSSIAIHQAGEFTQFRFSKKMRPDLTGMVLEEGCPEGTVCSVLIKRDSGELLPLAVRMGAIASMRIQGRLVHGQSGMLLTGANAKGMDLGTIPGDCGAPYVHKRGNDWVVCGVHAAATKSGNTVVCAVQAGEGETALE
Chain of Minerva virus protease (P54634 whole entry, looked up): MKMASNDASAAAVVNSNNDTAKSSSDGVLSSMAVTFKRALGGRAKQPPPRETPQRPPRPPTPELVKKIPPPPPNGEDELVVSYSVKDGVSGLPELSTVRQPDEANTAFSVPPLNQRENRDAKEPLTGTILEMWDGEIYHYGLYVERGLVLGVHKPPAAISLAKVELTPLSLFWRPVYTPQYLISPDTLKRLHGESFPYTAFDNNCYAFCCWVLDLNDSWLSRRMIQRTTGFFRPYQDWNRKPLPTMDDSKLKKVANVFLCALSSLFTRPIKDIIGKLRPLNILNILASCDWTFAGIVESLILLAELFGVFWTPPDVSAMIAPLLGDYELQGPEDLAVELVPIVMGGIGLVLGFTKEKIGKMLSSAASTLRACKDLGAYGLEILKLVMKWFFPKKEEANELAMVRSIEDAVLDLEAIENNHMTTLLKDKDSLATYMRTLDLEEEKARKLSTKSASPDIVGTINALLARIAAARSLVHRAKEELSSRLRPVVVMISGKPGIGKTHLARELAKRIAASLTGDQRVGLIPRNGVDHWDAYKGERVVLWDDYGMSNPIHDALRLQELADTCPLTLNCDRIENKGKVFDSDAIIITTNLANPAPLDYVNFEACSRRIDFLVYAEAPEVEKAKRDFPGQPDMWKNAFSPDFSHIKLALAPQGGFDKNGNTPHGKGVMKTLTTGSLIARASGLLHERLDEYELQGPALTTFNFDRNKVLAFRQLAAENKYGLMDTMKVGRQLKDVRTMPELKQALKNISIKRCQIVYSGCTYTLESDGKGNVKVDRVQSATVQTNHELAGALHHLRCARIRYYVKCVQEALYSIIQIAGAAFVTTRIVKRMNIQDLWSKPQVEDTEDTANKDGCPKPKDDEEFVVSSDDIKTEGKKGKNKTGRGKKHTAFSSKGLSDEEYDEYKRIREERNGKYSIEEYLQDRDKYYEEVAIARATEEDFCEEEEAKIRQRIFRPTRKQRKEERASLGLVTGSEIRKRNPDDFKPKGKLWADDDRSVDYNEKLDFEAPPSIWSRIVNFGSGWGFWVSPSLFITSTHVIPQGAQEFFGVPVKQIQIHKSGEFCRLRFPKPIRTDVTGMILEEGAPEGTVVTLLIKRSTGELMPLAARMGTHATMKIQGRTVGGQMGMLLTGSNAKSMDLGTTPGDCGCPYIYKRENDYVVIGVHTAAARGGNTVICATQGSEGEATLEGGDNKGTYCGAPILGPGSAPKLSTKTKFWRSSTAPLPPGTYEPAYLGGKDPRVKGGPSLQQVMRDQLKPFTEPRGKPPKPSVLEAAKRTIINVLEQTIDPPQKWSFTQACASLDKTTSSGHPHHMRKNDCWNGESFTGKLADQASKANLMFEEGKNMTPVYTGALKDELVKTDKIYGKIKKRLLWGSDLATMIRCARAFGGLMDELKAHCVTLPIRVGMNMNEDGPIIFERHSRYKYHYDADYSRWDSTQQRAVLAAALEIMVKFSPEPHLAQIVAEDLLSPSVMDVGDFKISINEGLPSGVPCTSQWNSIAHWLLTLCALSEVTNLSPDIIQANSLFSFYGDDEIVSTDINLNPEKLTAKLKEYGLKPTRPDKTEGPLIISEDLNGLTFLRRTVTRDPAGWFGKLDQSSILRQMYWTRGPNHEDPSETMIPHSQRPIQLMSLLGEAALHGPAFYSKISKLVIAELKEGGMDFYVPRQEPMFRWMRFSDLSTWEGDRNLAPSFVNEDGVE

With `CC(C)C[C@H](NC(=O)[C@H](Cc1cccc2ccccc12)NC(=O)OCc1ccccc1)C(=O)N[C@@H](C[C@@H]1CCCNC1=O)C(O)S(=O)(=O)O` (stereo partly drawn) [Compound 37, Sodium (5S,8S,11S)-12-hydroxy-8-isobutyl-5-(naphthalen-1-ylmethyl)-3,6,9-trioxo-11-(((S)-2-oxopiperidin-3-yl)methyl)-1-phenyl-2-oxa-4,7,10-triazadodecane-12-sulfonate], the CC50 in data set [1] is 44 µM; in data set [3], 11 µM; in data set [4] it was above 100 µM; in data set [6] it was 18 µM. In addition, the IC50 in data set [2] was found to be 0.654 ± 0.285 µM; in data set [5], 2.63 ± 1.04 µM. The same compound showed a Ki in data set [2] of 2.24 ± 0.438 µM.
